Test results as given in US11236352B2, “Transgenic plants resistant to non-protein amino acids” (Yeda Research and Development Co. Ltd., priority 2011, dated 2022).
pIC50: −log10 of the molar value.

Key:
[1] = tested on: wild-type Arabidopsis thaliana; assay: m-Tyr resistance: root growth on MS medium with m-Tyr, wild type; format: in vivo; conditions: wild type plants, 20 μM m-Tyr in growth media, 7 days
Description: (§1) Root growth of Wt (wild type), Cyt (transgenic plant containing cytosol localized bacterial PheRS) and Dual (transgenic plant containing plastids localized bacterial PheRS). Upper panels: samples grown on media containing 20 μM m-Tyrosine. Bottom panels: non-treated samples.
(§2) To assess effects of m-Tyr on Arabidopsis root growth, […] of m-Try was added to MS medium. Arabidopsis seeds were sterilized by shaking in 30% bleach. 0.3% Triton X-100 for 10 min, followed by three rinses with sterile distilled water. Petri dishes with seeds on agar medium were cold-stratified for 72 h at 4° C., and were subsequently placed vertically in green-house at 23° C., under 16:8 h light/dark cycle. After 7 days of growth, the root length of the plant was analyzed.
(§3) The bacterial PheRS genes described in the “Material and Methods” section hereinabove were expressed under the control of the constitutive 35S CaMV promoter. A transit peptide was appended to N-terminus of EcPheRS-α and EcPheRS-β subunits of the bacterial enzyme in order to direct them into the mitochondria and chloroplast of Arabidopsis thaliana. The second constructs pair including PheRS-α and PheRS-β lacked the transit peptides. […] Several independent transgenic lines were obtained, and their resistance to m-Tyr was analyzed. […]

[2] = tested on: mtp-PheRS Arabidopsis thaliana lines; assay: m-Tyr resistance: root growth on MS medium with m-Tyr, mtp-PheRS line; format: in vivo; conditions: lines containing mtp-PheRS, 20 μM m-Tyr in growth media, 7 days
Description: as §1, §2, §3

[3] = tested on: cyt-PheRS Arabidopsis thaliana lines; assay: m-Tyr resistance: root growth on MS medium with m-Tyr, cyt-PheRS line; format: in vivo; conditions: cyt-PheRS expressing line, 20 μM m-Tyr in growth media, 7 days
Description: as §1, §2, §3

[4] = tested on: Arabidopsis thaliana; conditions: added to an agar medium; read-out: concentration that inhibits root growth by 50%; cited from earlier work
[5] = tested on: Arabidopsis thaliana; conditions: in vivo; cited from earlier work
[6] = molecular target: T1, HsmtPheRS (Homo sapiens, UniProt O95363); conditions: mitochondrial enzyme, no editing domain; cited from earlier work
T1 sequence (O95363 1-451): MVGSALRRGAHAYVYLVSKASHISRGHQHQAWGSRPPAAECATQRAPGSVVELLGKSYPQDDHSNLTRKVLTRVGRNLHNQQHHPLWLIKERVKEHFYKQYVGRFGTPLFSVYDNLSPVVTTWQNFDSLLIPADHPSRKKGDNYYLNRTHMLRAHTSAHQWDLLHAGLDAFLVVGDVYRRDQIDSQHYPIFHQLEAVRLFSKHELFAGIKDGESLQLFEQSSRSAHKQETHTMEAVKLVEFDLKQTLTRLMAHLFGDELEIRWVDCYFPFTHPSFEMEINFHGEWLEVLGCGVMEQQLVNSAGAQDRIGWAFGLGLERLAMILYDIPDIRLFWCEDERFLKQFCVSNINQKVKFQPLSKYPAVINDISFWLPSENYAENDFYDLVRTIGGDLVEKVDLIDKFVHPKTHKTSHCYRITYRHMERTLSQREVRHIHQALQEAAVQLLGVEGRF

[7] = molecular target: bacterial PheRS (Thermus thermophilus, UniProt Q5SGX1+Q5SGX2); conditions: FIG. 1; cited from earlier work
bacterial PheRS (Thermus thermophilus, UniProt Q5SGX1+Q5SGX2), sequence (Q5SGX1 whole entry): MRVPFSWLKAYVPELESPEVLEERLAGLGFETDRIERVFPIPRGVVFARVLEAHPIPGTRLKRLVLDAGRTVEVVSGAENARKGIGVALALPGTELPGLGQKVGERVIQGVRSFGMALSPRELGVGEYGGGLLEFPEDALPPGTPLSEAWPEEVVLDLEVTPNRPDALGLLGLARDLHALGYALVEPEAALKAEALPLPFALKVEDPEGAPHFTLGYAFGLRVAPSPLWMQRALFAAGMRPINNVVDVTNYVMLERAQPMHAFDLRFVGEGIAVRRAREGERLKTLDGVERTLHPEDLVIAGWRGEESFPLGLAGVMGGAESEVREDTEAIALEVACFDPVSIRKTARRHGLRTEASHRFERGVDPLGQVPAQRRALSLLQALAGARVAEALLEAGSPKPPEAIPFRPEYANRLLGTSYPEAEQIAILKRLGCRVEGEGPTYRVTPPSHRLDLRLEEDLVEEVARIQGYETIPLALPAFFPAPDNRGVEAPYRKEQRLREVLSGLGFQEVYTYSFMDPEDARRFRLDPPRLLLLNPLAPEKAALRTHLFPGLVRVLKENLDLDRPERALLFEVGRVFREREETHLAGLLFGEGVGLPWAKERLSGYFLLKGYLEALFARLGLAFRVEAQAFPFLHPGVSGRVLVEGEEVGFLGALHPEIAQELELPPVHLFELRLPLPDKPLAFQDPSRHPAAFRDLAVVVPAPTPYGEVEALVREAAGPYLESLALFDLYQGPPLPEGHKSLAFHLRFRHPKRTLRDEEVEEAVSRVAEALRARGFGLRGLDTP
bacterial PheRS (Thermus thermophilus, UniProt Q5SGX1+Q5SGX2), sequence (Q5SGX2 whole entry): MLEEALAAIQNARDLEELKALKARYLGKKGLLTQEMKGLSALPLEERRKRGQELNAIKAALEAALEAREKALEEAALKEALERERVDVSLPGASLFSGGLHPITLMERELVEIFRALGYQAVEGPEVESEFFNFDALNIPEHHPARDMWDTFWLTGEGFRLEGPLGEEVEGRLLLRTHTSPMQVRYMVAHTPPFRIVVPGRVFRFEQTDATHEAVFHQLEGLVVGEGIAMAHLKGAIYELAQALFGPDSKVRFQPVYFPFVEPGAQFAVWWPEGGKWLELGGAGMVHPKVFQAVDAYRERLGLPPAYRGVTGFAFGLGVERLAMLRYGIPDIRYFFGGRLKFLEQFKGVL

[8] = tested on: bacterial PheRS; conditions: incubated with bacterial PheRS; cited from earlier work

N[C@@H](Cc1cccc(O)c1)C(=O)O [m-Tyr, meta-tyrosine]
root development [1]: didn't develop
root development [2]: developed up to the half of the length of the non-treated plants
root development [3]: less developed compared to the line containing mtp-PheRS
pIC50 [4]: 5.70
concentration that completely prevents seed germination [5]: 50 µM
synthesis of m-Tyr-tRNA^Phe [6]: could stably synthesize m-Tyr-tRNA^Phe
mischarging of tRNA^Phe with m-Tyr [7]: no mischarging
deacylation of m-Tyr from preloaded m-Tyr-tRNA^Phe [8]: deacylated from the tRNA
